Source: publication PMC12442081, “Combating Fuel Biocontamination: Tailored Antimicrobial Peptides and an Innovative Delivery Strategy” (ACS Applied Bio Materials, 2025)
Like-named read-outs stand apart in the source and are kept apart here. Where no end group is shown, it is not given here.

Key:
[1] = tested on: Bacillus licheniformis (BL); assay: Effectiveness of peptides on spiked fuel samples (aqueous layer); format: cell-based; design: key: (+) =1 (implying peptide activity in fuel environment); (X) = 0 (implying no activity in the desired range, indicated by microbial proliferation); Fuel x = -1(implying no activity in fuel environment); conditions: initial screening in spiked fuel
Protocol: (§1) To study the partitioning of microbes in fuel tanks, filter-sterilized fuel was mixed with BH medium in a 1:1 (v/v) ratio. The inoculum was added to the aqueous phase at the bottom to simulate growth in the aqueous layer of fuel tanks and incubated aerobically at 30 °C for 30 days. Visible growth was assessed, and aliquots from both the aqueous and fuel phases were plated on nutrient agar plates to evaluate microbial growth. Peptides were initially added to the aqueous layer of microbially spiked fuel samples for screening the effectiveness in the fuel environment. The study was further extended over a longer duration, and incubated under aerobic conditions at 30 °C for 30 days. Microbial growth was monitored at regular intervals by plating aliquots from the aqueous layer on the nutrient agar plates.
(§2) The engineered peptides were administered at their respective MICs to the aqueous layer of simulated fuel samples, and samples from both the aqueous and solvent (fuel) layers were removed at intervals of 7, 14, 21, and 30 days and plated on LBA plates to assess cell viability (Table S5).

[2] = tested on: Sphingomonas paucimobilis (SP); assay: as above; format: cell-based; design: key: (+) =1 (implying peptide activity in fuel environment); (X) = 0 (implying no activity in the desired range, indicated by microbial proliferation); Fuel x = -1(implying no activity in fuel environment); conditions: initial screening in spiked fuel
Protocol: as §1, §2

Hormoconis resinae (HR) = assay: as above; format: cell-based; design: key: (+) =1 (implying peptide activity in fuel environment); (X) = 0 (implying no activity in the desired range, indicated by microbial proliferation); Fuel x = -1(implying no activity in fuel environment); conditions: initial screening in spiked fuel
Protocol: as §1, §2

Roseomonas mucosa (RM) = assay: as above; format: cell-based; design: key: (+) =1 (implying peptide activity in fuel environment); (X) = 0 (implying no activity in the desired range, indicated by microbial proliferation); Fuel x = -1(implying no activity in fuel environment); conditions: initial screening in spiked fuel
Protocol: as §1, §2

[3] = tested on: Pseudomonas aeruginosa (PA); assay: as above; format: cell-based; design: key: (+) =1 (implying peptide activity in fuel environment); (X) = 0 (implying no activity in the desired range, indicated by microbial proliferation); Fuel x = -1(implying no activity in fuel environment); conditions: initial screening in spiked fuel
Protocol: as §1, §2

[4] = tested on: Micrococcus yunnanensis (MY); assay: as above; format: cell-based; design: key: (+) =1 (implying peptide activity in fuel environment); (X) = 0 (implying no activity in the desired range, indicated by microbial proliferation); Fuel x = -1(implying no activity in fuel environment); conditions: initial screening in spiked fuel
Protocol: as §1, §2

[5] = tested on: Macrococcus caseolyticus (MC); assay: as above; format: cell-based; design: key: (+) =1 (implying peptide activity in fuel environment); (X) = 0 (implying no activity in the desired range, indicated by microbial proliferation); Fuel x = -1(implying no activity in fuel environment); conditions: initial screening in spiked fuel
Protocol: as §1, §2

Kocuria rosea (KR) = assay: as above; format: cell-based; design: key: (+) =1 (implying peptide activity in fuel environment); (X) = 0 (implying no activity in the desired range, indicated by microbial proliferation); Fuel x = -1(implying no activity in fuel environment); conditions: initial screening in spiked fuel
Protocol: as §1, §2

[6] = tested on: Dermacoccus nishinomiyaensis (DN); assay: as above; format: cell-based; design: key: (+) =1 (implying peptide activity in fuel environment); (X) = 0 (implying no activity in the desired range, indicated by microbial proliferation); Fuel x = -1(implying no activity in fuel environment); conditions: initial screening in spiked fuel
Protocol: as §1, §2

[7] = tested on: microbial clusters MY, KR, DN, MC, BL, RM, SP, PA, HR; assay: Broad-spectrum activity score (in-house scoring matrix); conditions: sum over 9 microbial clusters: (+) = 1, (X) = 0, Fuel x = -1
Protocol: Table S4. Summarizing the broad-spectrum activity of the peptides, considering the MIC value/ efficacy to control microbial growth upon fuel co-incubation
Peptides Bacterial clusters Fungal
Actinobacteria Firmicutes Proteobacteria Asco- […]
Peptides identified based on the scoring matrix, where (+) =1 (implying peptide activity in fuel environment); (X) = 0 (implying no activity in the desired range, indicated by microbial proliferation); Fuel x = -1(implying no activity in fuel environment).
Clearly, P17 is the best performing peptide in vitro across diverse microbial phyla as well as when incubated in the fuel environment. Based on the activity of the selected peptides, the best

[8] = HPLC retention time as a function of peptide hydrophobicity; format: physicochemical; conditions: chromatographic, Polaris 5 C18-A reverse phase, 0.1% TFA water / 0.1% TFA acetonitrile gradient, 30 min, 300 μM peptide
Protocol: The purity of the peptides was ascertained by high-performance liquid chromatography (HPLC) using Polaris 5 C18-A […] × 4.6 mm reverse phase Zorbax columns from Agilent Technologies. The buffer system contained 0.1% (v/v) TFA in 100% water and 0.1% (v/v) TFA in 100% acetonitrile. Each peptide sample contained 300 μM peptides dissolved in an acetonitrile–water (1:4) mixture. A constant gradient of the two solvent systems was used to generate the chromatogram for 30 min after sample injection.

[9] = tested on: Pseudomonas aeruginosa (PA) ATCC 39327; format: cell-based
Protocol: (§3) All of the bacterial species were grown overnight at 37 °C in LB broth. 10^7 CFU/mL of cells were resuspended in fresh culture and grown until the mid log phase. , The bacterial cells were adjusted to a concentration of 5 × 10^5 CFU/mL to quantify the MIC. Equal volumes of the respective bacterial cultures were incubated with the serially diluted peptides in 96-well microtiter plate and incubated overnight at 37 °C in ambient air. Microorganisms without peptides were treated as the positive control, while uninoculated broth was used as the negative control. The MIC was taken as the lowest peptide concentration at which observable bacteria growth was inhibited, as measured by a microplate reader (Biotek Synergy H1 microplate reader). Experiments were performed in triplicates, and the mean MIC values were determined. A similar study was performed to understand the effect of peptide purity, i.e., ranging from 70 to 95%, on the peptide MIC.

[10] = tested on: Bacillus licheniformis (BL) ATCC 14580; format: cell-based
Protocol: as §3

[11] = tested on: Macrococcus caseolyticus (MC) ATCC 13548; format: cell-based
Protocol: as §3

[12] = tested on: Sphingomonas paucimobilis (SP); format: cell-based
Protocol: as §3

[13] = tested on: Micrococcus yunnanensis (MY) ATCC 12698; format: cell-based
Protocol: as §3

[14] = tested on: Dermacoccus nishinomiyaensis (DN) ATCC 29093; format: cell-based
Protocol: as §3

[15] = LB broth, 5 × 10^5 CFU/mL, overnight 37 °C, mean of triplicates, “–” = no detectable activity

| Compound | activity considering MIC value/efficacy upon fuel co-incubation [1] | activity considering MIC value/efficacy upon fuel co-incubation [2] | activity considering MIC value/efficacy upon fuel co-incubation (Hormoconis resinae (HR)) | activity considering MIC value/efficacy upon fuel co-incubation (Roseomonas mucosa (RM)) | activity considering MIC value/efficacy upon fuel co-incubation [3] | activity considering MIC value/efficacy upon fuel co-incubation [4] | activity considering MIC value/efficacy upon fuel co-incubation [5] | activity considering MIC value/efficacy upon fuel co-incubation (Kocuria rosea (KR)) | activity considering MIC value/efficacy upon fuel co-incubation [6] | Score [7] | R t, retention time of peptide on HPLC column as a function of peptide hydrophobicity [8] | MIC ([9]; ATCC 39327) | MIC ([10]; ATCC 14580) | MIC [11] | MIC [12] | MIC [13] | MIC [14] | MIC [9, 15] | MIC [10, 15] | MIC [12, 15] |
| --- | --- | --- | --- | --- | --- | --- | --- | --- | --- | --- | --- | --- | --- | --- | --- | --- | --- | --- | --- | --- |
| CC[C@H](C)[C@H](N)C(=O)N[C@@H](CC(C)C)C(=O)N[C@H](C(=O)N[C@@H](Cc1c[nH]c2ccccc12)C(=O)N[C@@H](CCCCN)C(=O)N[C@@H](Cc1c[nH]c2ccccc12)C(=O)N1CCC[C@H]1C(=O)N[C@@H](Cc1c[nH]c2ccccc12)C(=O)N[C@@H](Cc1c[nH]c2ccccc12)C(=O)N1CCC[C@H]1C(=O)N[C@@H](Cc1c[nH]c2ccccc12)C(=O)N[C@@H](CCCNC(=N)N)C(=O)N[C@@H](CCCNC(=N)N)C(=O)O)C(C)C [P12] | + | + | X | X | X | X | + | X | + | 4 | 12.903 min | 7.8 µM | 3.9 µM | 0.9 µM | 0.9 µM | 0.9 µM | 0.9 µM | – | – | – |
| CC[C@H](C)[C@H](N)C(=O)N[C@@H](CC(C)C)C(=O)N[C@@H](Cc1c[nH]c2ccccc12)C(=O)N[C@@H](Cc1c[nH]c2ccccc12)C(=O)N[C@@H](CCCCN)C(=O)N[C@@H](Cc1c[nH]c2ccccc12)C(=O)N1CCC[C@H]1C(=O)N[C@@H](Cc1c[nH]c2ccccc12)C(=O)N[C@@H](Cc1c[nH]c2ccccc12)C(=O)N1CCC[C@H]1C(=O)N[C@@H](Cc1c[nH]c2ccccc12)C(=O)N[C@@H](CCCNC(=N)N)C(=O)N[C@@H](CCCNC(=N)N)C(=O)O [P15] | + | + | X | X | X | X | + | X | X | 3 | 14.327 min | – | 0.9 µM | 0.9 µM | 0.9 µM | – | – | – | – | – |
| ILPWRWPWWPWRR [P10] | + | X | X | X | X | X | X | X | X | 1 | 12.417 min | – | – | – | – | – | – | 31.25 µM | 3.9 µM | 7.8 µM |
